Results from patent publication US20250186379A1, “METHODS AND AGENTS FOR DECREASING INSULIN RESISTANCE” (Whitehead Institute for Biomedical Research, priority 2021, published 2025).
“Also recorded” adds a separate entry of the source.

Test system: IR condensates
Experiment: tc-PALM of IR cluster/condensate dynamics in HepG2 cells expressing IR-Dendra2
Type: cell-based, human
Method: Widefield Live-cell super-resolution imaging was performed in a photo-activation localization microscopy (PALM) approach using a Nikon Eclipse Ti microscope with a 100× oil immersion objective. The 405 nm and 561 nm laser beams were combined in an external platform with customized power densities to image Dendra2-tagged molecules as previously reported (56). Cells were maintained at 37° C. in a temperature-controlled platform during imaging, and the CO2 level was maintained at 5% by Leibovitz's L-15 Medium with no phenol red (ThermoFisher #21083027). In each imaging cycle, a 2400-frame video stream including a (256 pixel)2 region of interest (ROI) was recorded in 20 Hz acquisition rate with the EM-gain setting as 1000 on an Andor iXon Ultra 897 EMCCD. Each pixel conjugates with a (160 nm)2 area on the sample side. After PALM imaging, the Hoechst-stained nuclei of the same ROI were imaged with stronger 405 nm excitation through DAPI filter.
Detection localization. For each frame of a raw image, Gaussian particles were identified by pixelwise test of hypotheses, whose peak positions were individually fitted at subpixel resolution by maximum-likelihood regression with Gauss-Newton method (91). An additional deflation loop was performed to avoid missing dimmer particles when they were overshadowed by neighboring brighter ones. This multi-particle detection localization procedure has been integrated in a published, open-source MATLAB software called MTT (91).
Spatial clustering. DBSCAN and “manual selection” hybridized approach was applied to group spatially clustered detections via the qSR software (92). Firstly, DBSCAN was performed to generalize a proposal map of spatially clustered detections. Given that IR condensates can be tiny and transient, a “loose” parameter setting was used when performing the DBSCAN (length-scale=120 nm, N_min=4). This parameter combination was determined by comparing the rendered super-resolved reconstructions with the color-coded cluster maps until the clustering results visually make sense for most ROIs. Secondly, individual clusters were manually selected based on the clustering proposal map from last step. Some custom MATLAB code was used to reconstruct the IR distribution of each ROI superposed with the corresponding nuclei image, which was further cross-compared with the corresponding cluster map to determine which region each cluster belongs to (i.e., plasma-membrane, cytoplasm, or nucleus).
Temporal clustering. For each spatial cluster, time-correlated PALM (tc-PALM) analysis was performed along the time axis to extract the truly colocalized, time-correlated multimolecule bursting events (11, 13-14). The lifetime of a burst is simply defined as the timespan from the first to the last detections. More details about the quantitative validations and statistics of tc-PALM analysis can be found in NOTES and FIG. 11.
Widefield, live-cell, super-resolution imaging was performed in a photo-activation localization microscopy (PALM) approach using a Nikon Eclipse Ti microscope with a 100× oil immersion objective. The 405 nm and 561 nm laser beams were combined in an external platform with customized power densities to image Dendra2-tagged molecules as previously reported^24. Cells were cultured on imaging dishes (MatTek, P35G-1.5-20-C) and then imaged while maintaining both the temperature at 37° C. with a temperature-controlled platform and the level of CO2 at 5% with Leibovitz's L-15 Medium with no phenol red (Thermo Fisher, 21083027). During each imaging cycle, a 2400-frame video stream including a (256 pixel)^2 region of interest (ROI) was recorded in 20 Hz acquisition rate with the EM-gain setting as 1000 on an Andor iXon Ultra 897 EMCCD. Each pixel conjugates with a (160 nm)^2 area on the sample side. After PALM imaging, the Hoechst-stained nuclei of the same ROI were imaged using a stronger 405 nm excitation through DAPI filter. […] Following a 5-minute wait, the cells were imaged for 15-20 minutes.

[1] = insulin resistant (3 nM insulin) versus sensitive (0.1 nM) cells
[2] = insulin sensitive cells, 3 nM insulin 5 min

CN(C)C(=N)N=C(N)N [metformin, reference compound]
IR condensate lifetimes in the plasma membrane, cytoplasm and nucleus (insulin-resistant cells, 12.5 μM metformin, after insulin washout (FIG. 18B)): rescued condensate lifetimes in the plasma membrane, cytoplasm and nucleus to times that were similar to those in insulin-sensitive cells | IR condensate lifetime in insulin-sensitive cells (insulin-sensitive HepG2 IR-Dendra2 cells, 12.5 μM metformin for 1 day (FIG. 37)): did not decrease IR condensate lifetime; also recorded: does not decrease IR condensate lifetime | IR cluster lifetimes in the cytoplasm and nucleus (metformin-treated insulin resistant cells (FIG. 5C), no acute insulin stimulation): reduced cluster lifetimes in the cytoplasm and nucleus to times that were similar to those in insulin sensitive cells | IR cluster lifetimes in the plasma membrane (metformin-treated insulin resistant cells, 12.5 M metformin as printed (FIG. 5C), no acute insulin stimulation): little effect | frequency of nuclear IR clusters with 0-25 s lifetimes (metformin-treated resistant cells vs resistant cells (FIG. 5C)): increased | frequency of plasma membrane and nuclear IR condensates with 0-13 s lifetimes (metformin-treated resistant cells vs resistant cells (FIG. 18B)): increased | IR clusters in the cytoplasm with a lifetime of 0-25 s (metformin-treated resistant cells, ~40% in insulin resistant cells (FIG. 5C)): ~60% | IR condensates in the cytoplasm with a lifetime of 0-13 s (metformin-treated resistant cells, ~40% in insulin-resistant cells (FIG. 18B)): ~60%

TNFα
IR dynamics in condensates (HepG2 IR-Dendra2 cells, pathological TNFα or high nutrients (FIGS. 36A-36B)): decreased IR dynamics in condensates

insulin: insulin (Sigma Aldrich, I9278-5ML) used for acute stimulation and chronic physiological or pathological exposure
average number of IR-Dendra2 detections per cluster (entire cells, insulin-stimulated (3 nM, 5 min), 22 (range 4-609) in unstimulated cells): 27 (range 4-539) | increase of percentage of long-lived IR clusters, cytoplasm [1]: 1.4 fold | increase of percentage of long-lived IR clusters, nucleus [1]: 3.6 fold | number of IR clusters in the cytoplasm and nucleus [2]: produced an increase; also recorded: resulted in an increase | number of IR molecules / IR detections in clusters [2]: an increase in the number of IR molecules in these clusters; also recorded: an increase in the number of IR detections in clusters | average number of IR molecules per cluster, nucleus (insulin stimulated cells (3 nM, 5 min), 9 (2-46) in unstimulated cells): 14 (2-283) | average number of IR molecules per cluster, cytoplasm (insulin stimulated cells (3 nM, 5 min), 14 (2-264) in unstimulated cells): 19 (2-295) | percentage of long-lived IR condensates in the plasma membrane, cytoplasm and nucleus (insulin-resistant (3 nM insulin) versus sensitive cells (FIG. 18B)): also increased | average lifetime of short-lived IR clusters, nucleus (pathologic insulin (3 nM), insulin resistant cells, 5.9 s in sensitive cells (FIG. 4B)): 16 s | average lifetime of short-lived IR clusters, cytoplasm (pathologic insulin (3 nM), insulin resistant cells, 9.8 s in sensitive cells (FIG. 4B)): 13.2 s | average lifetime of short-lived IR condensates, plasma membrane (pathologic insulin (3 nM), insulin-resistant cells, 6.8 s in sensitive cells (FIG. 18B)): 11.8 s | average lifetime of short-lived IR condensates, nucleus (pathologic insulin (3 nM), insulin-resistant cells, 7.0 s in sensitive cells (FIG. 18B)): 12.9 s | average lifetime of short-lived IR condensates, cytoplasm (pathologic insulin (3 nM), insulin-resistant cells, 10.0 s in sensitive cells (FIG. 18B)): 15.8 s
